Entries after “also recorded” stand apart in the source; their conditions may differ.
What was measured:
Type in all cases: cell-based, Mycobacterium tuberculosis
[1] = tested on: M.tb isolates
[2] = tested on: M.tb isolates; remark: listed apart in the source
[3] = tested on: M.tb isolates; remark: listed apart in the source

SMILES	Susceptibility in LJ media [1]	Total number of isolates Resistant (LJ) [1]	Level of resistance [2]	Total number of isolates Resistant (MGIT) [3]
NCC[C@H](O)C(=O)N[C@@H]1C[C@H](N)[C@@H](O[C@H]2O[C@H](CN)[C@@H](O)[C@H](O)[C@H]2O)[C@H](O)[C@H]1O[C@H]1O[C@H](CO)[C@@H](O)[C@H](N)[C@H]1O [AMK, Amikacin]	susceptible	90	high level resistance; also recorded: no resistance to AMK	
NC[C@H]1O[C@H](O[C@H]2[C@H](O)[C@@H](O[C@H]3O[C@H](CO)[C@@H](O)[C@H](N)[C@H]3O)[C@H](N)C[C@@H]2N)[C@H](O)[C@@H](O)[C@@H]1O [KAN, Kanamycin]		106		113

Reference: US12139768B2, “Polymerase chain reaction primers and probes for Mycobacterium tuberculosis” (Rutgers, The State University of New Jersey, priority 2014, dated 2024)
